Columns and labels:
[1] = target: T1, Alpha-1A adrenergic receptor (Homo sapiens, UniProt P35348); assay: The compound was tested for binding affinity against Alpha-1A adrenergic receptor from human clones.
T1 sequence (P35348 whole entry): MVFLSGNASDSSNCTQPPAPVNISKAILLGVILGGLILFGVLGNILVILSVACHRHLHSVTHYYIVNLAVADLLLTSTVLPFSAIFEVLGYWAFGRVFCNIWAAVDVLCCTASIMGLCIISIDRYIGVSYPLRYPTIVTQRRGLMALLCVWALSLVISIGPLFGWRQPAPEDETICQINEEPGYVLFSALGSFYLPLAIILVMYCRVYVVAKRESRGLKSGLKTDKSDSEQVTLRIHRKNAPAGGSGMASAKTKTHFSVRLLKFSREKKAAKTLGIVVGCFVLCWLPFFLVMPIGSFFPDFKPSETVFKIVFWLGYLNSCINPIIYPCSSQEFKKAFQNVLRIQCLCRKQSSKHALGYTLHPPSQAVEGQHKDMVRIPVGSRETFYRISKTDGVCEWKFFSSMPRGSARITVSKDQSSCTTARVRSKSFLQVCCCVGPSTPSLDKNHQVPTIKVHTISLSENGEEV

[2] = target: T2, Alpha-2B adrenergic receptor (Homo sapiens, UniProt P18089); assay: Binding affinity against Alpha-2B adrenergic receptor from human clones.
T2 sequence (P18089 whole entry): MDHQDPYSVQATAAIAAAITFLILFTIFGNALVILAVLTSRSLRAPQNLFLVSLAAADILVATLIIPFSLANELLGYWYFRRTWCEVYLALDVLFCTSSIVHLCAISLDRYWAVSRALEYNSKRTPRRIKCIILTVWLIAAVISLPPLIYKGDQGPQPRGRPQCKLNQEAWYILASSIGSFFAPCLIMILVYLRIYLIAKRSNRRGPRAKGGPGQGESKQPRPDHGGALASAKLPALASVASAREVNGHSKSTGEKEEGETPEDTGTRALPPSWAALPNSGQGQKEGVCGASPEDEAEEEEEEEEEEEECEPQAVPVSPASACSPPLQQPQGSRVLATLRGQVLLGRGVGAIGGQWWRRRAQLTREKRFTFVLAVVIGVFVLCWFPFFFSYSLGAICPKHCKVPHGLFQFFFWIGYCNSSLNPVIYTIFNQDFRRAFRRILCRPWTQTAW

[3] = target: T3, Alpha-2C adrenergic receptor (Homo sapiens, UniProt P18825); assay: Binding affinity against Alpha-2C adrenergic receptor from human clones.
T3 sequence (P18825 whole entry): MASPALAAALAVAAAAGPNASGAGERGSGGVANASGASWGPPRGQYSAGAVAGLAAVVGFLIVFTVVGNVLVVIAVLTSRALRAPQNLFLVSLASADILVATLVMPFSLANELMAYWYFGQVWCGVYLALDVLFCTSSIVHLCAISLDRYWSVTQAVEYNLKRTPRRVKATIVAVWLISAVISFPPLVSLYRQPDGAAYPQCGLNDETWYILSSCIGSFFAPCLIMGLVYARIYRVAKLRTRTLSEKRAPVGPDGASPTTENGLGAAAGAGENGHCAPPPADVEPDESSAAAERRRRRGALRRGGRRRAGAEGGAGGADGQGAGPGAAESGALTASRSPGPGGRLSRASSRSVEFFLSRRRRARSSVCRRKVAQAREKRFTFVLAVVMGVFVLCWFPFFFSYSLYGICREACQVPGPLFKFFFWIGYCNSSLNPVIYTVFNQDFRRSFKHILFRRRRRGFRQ

[4] = target: T4, Alpha-1A adrenergic receptor (Bos taurus, UniProt P18130); assay: The compound was tested for binding affinity against Alpha-1A adrenergic receptor from bovine clones.
T4 sequence (P18130 whole entry): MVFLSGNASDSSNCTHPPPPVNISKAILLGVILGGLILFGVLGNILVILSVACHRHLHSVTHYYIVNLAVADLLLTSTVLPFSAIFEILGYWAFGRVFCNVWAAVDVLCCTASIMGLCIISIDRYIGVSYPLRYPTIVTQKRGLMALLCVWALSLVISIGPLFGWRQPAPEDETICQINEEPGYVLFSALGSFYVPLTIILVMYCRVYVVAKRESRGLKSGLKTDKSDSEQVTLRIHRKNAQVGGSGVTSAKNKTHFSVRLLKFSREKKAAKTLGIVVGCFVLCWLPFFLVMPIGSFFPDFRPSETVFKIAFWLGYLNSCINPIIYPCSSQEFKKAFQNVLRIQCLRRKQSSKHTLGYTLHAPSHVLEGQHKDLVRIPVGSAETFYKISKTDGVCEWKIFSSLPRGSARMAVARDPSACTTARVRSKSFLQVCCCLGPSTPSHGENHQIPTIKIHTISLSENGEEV

[5] = target: T5, Alpha-1D adrenergic receptor (Rattus norvegicus, UniProt P23944); assay: Binding affinity against Alpha-1D adrenergic receptor, from rat clones.
T5 sequence (P23944 whole entry): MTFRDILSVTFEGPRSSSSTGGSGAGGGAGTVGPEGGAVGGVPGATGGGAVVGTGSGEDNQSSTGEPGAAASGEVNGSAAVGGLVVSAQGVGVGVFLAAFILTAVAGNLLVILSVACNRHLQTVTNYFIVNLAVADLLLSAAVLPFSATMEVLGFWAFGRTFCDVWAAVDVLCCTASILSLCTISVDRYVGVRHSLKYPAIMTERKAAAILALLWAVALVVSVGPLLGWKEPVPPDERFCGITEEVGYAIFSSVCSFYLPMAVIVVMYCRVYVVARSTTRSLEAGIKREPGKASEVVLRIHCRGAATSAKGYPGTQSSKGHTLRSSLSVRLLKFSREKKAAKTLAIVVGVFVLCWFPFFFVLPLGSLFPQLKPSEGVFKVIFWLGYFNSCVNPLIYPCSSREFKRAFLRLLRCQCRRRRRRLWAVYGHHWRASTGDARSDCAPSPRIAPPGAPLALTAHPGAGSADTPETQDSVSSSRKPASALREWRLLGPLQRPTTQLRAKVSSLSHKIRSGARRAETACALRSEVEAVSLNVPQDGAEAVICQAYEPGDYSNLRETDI

[6] = target: T6, Alpha-1A adrenergic receptor (Rattus norvegicus, UniProt P43140); assay: Overall binding displacement in tissues containing only the Alpha-1A adrenergic receptor from rat submaxillary gland
T6 sequence (P43140 whole entry): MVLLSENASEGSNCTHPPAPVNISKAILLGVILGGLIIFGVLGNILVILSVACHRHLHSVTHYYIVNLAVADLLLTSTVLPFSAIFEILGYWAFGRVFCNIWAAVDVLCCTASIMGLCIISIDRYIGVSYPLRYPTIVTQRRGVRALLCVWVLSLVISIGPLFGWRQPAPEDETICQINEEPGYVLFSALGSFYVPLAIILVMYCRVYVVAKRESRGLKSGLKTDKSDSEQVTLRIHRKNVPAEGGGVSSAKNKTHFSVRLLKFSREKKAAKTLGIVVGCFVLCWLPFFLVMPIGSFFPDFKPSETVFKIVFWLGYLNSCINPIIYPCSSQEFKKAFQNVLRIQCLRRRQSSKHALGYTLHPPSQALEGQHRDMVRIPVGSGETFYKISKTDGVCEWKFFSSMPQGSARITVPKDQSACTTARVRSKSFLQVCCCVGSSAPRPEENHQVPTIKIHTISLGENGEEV

SMILES | Ki [1] [nM] | Ki [2] [nM] | Ki [3] [nM] | Ki [4] [nM] | Ki [5] [nM] | Ki [6] [nM]
O=C(NC1CCN(CCc2c[nH]c3ccccc23)CC1)c1ccccc1 [INDORAMIN] | 3.7 | 528 | 476 | 12 | 611 | 
COc1ccccc1N1CCN(CCCNc2c(C)c(=O)n(C)c(=O)n2C)CC1 | 2.3 | 406 | 131 | 4.4 | 186 | 0.7
COc1cccc(OC)c1OCCNCC1COc2ccccc2O1 (stereo not given) |  | 28 | 0.8 |  | 1.2 | 0.08

Source: ChEMBL document CHEMBL1128530, “Alpha- and beta-adrenoceptors: from the gene to the clinic. 1. Molecular biology and adrenoceptor subclassification” (J Med Chem, 1995)
